For test [1], the target named is T1, human B1R receptor (bradykinin 1 receptor) (Homo sapiens, UniProt P46663).
T1 construct: host or cells: CHO K1 cells (hB1R cells)
T1 sequence (P46663 1-353): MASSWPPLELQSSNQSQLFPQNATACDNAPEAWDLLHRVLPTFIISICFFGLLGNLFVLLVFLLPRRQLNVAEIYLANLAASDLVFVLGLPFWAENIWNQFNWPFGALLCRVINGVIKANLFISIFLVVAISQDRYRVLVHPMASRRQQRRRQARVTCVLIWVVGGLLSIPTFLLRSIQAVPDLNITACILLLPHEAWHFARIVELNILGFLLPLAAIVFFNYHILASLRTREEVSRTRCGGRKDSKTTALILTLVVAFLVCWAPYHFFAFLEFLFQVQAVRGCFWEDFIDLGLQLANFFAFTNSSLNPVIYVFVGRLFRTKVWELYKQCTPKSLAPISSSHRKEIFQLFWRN
Nature of the test: FLIPR Ca2+ assay (Fluo-4) on CHO K1 cells stably transfected with the human B1R gene; % activation and % inhibition at 10 μM. Type of test: cell-based. Conditions: CHO-K1, test substance 10 μM; CHO K1 hB1R cells; Ca2+ inflow after 0.5 nM Lys-Des-Arg9-bradykinin; read-out: B1R antagonism, human [10 μM] % inhibition. In outline: (§1)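 Fluo-4 Ca2+ flux on FLIPR in stable hB1R or rB1R CHO K1 lines, two additions. Agonism: 10 µM compound versus 0.5 nM Lys-Des-Arg9-BK (human) or 100 nM Des-Arg9-BK (rat); antagonism: same agonists applied 10 min later, suppression expressed against maximum achievable inhibition.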

Test [2] concerns the target T2, B1R receptor of the rat (bradykinin 1 receptor) (Rattus norvegicus, UniProt P97583).
T2 construct: host or cells: CHO K1 cells (rB1R cells)
T2 sequence (P97583 1-337): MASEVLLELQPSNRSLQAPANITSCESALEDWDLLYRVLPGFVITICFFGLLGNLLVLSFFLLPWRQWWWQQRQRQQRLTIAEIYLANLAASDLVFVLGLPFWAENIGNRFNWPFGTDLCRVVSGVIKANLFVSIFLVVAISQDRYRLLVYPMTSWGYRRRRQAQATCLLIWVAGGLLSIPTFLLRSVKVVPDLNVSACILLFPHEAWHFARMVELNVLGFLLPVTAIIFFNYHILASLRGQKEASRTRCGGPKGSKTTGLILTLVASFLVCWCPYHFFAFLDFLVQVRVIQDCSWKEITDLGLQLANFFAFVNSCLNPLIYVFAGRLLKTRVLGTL
Nature of the test: FLIPR Ca2+ assay (Fluo-4) on CHO K1 cells stably transfected with the B1R gene of the rat; % activation and % inhibition at 10 μM. Type of test: cell-based. Conditions: CHO-K1, test substance 10 μM; CHO K1 rB1R cells; Ca2+ inflow after 100 nM Des-Arg9-bradykinin; read-out: B1R antagonism, rat [10 μM] % inhibition. An outline of the steps:
as §1

Counter-ions that a name gives are not always drawn.

On to `CN(CCOCC(=O)N1CCC(O)(c2ccc(Cl)cc2)CC1)S(=O)(=O)c1cc(Cl)sc1Cl` [Example 260, 2,5-dichloro-N-(2-(2-(4-(4-chlorophenyl)-4-hydroxypiperidin-1-yl)-2-oxoethoxy)ethyl)-N-methylthiophene-3-sulfonamide], for which the figures for the inhibition at 10 µM in test [1] and in test [2] were 73.1% and 91.1%, respectively.
Regarding `CN(CCOCC(=O)N1CCC(O)(c2ccc(Br)cc2)CC1)S(=O)(=O)c1cc(Cl)sc1Cl` [Example 261, N-(2-(2-(4-(4-bromophenyl)-4-hydroxypiperidin-1-yl)-2-oxoethoxy)ethyl)-2,5-dichloro-N-methylthiophene-3-sulfonamide], the figures for the inhibition at 10 µM in test [1] and in test [2] were 87.8% and 98.5%, respectively.
`CN(CCOCC(=O)N1CCC(O)(c2cccc(C(F)(F)F)c2)CC1)S(=O)(=O)c1cc(Cl)sc1Cl` [Example 262, 2,5-dichloro-N-(2-(2-(4-hydroxy-4-(3-(trifluoromethyl)phenyl)piperidin-1-yl)-2-oxoethoxy)ethyl)-N-methylthiophene-3-sulfonamide]: the inhibition at 10 µM in test [1] was determined as 73.6%; in test [2], 94.2%.
As to `CN(CCOCC(=O)N1CCC(O)(c2ccc(Cl)c(C(F)(F)F)c2)CC1)S(=O)(=O)c1cc(Cl)sc1Cl` [Example 263, 2,5-dichloro-N-(2-(2-(4-(4-chloro-3-(trifluoromethyl)phenyl)-4-hydroxypiperidin-1-yl)-2-oxoethoxy)ethyl)-N-methylthiophene-3-sulfonamide], the inhibition at 10 µM in test [1] came out at 42.9%; in test [2], 70.5%.
For `COc1cc(C)cc(C)c1S(=O)(=O)N1CCC(OCC(=O)N2CCC(O)(c3ccc(Br)cc3)CC2)C1` (stereo not drawn) [Example 264, 1-(4-(4-bromophenyl)-4-hydroxypiperidin-1-yl)-2-(1-(2-methoxy-4,6-dimethylphenylsulfonyl)pyrrolidin-3-yloxy)ethanone], the inhibition at 10 µM in test [1] worked out at 64.5%; in test [2], 4.5%.
In the case of `COc1cc(C)cc(C)c1S(=O)(=O)N1CCC(OCC(=O)N2CCC(O)(Cc3ccccc3)CC2)C1` (stereo not drawn) [Example 265, 1-(4-benzyl-4-hydroxypiperidin-1-yl)-2-(1-(2-methoxy-4,6-dimethylphenylsulfonyl)pyrrolidin-3-yloxy)ethanone], the inhibition at 10 µM was 54.1% in test [1] and 29.5% in test [2].
`O=C(COCC1CCCN1S(=O)(=O)c1cc(Cl)sc1Cl)N1CCC(O)(c2cccs2)CC1` (stereo not drawn) [Example 266, 2-((1-(2,5-dichlorothiophen-3-ylsulfonyl)pyrrolidin-2-yl)methoxy)-1-(4-hydroxy-4-(thiophen-2-yl)piperidin-1-yl)ethanone]: the inhibition at 10 µM came out at 21.9% in test [1] and 78.6% in test [2].
As for `COc1cc(C)c(S(=O)(=O)N2CCC(COCC(=O)N3CCC(O)(c4cccs4)CC3)C2)c(C)c1` (stereo not drawn) [Example 267, 1-(4-hydroxy-4-(thiophen-2-yl)piperidin-1-yl)-2-((1-(4-methoxy-2,6-dimethylphenylsulfonyl)pyrrolidin-3-yl)methoxy)ethanone], the inhibition at 10 µM in test [1] was determined as 90.6%; in test [2], 97.8%.
For `COc1cc(C)c(S(=O)(=O)N(CCOCC(=O)N2CCC(O)(c3cccs3)CC2)CC2CC2)c(C)c1C` [Example 268, N-(cyclopropylmethyl)-N-(2-(2-(4-hydroxy-4-(thiophen-2-yl)piperidin-1-yl)-2-oxoethoxy)ethyl)-4-methoxy-2,3,6-trimethylphenylsulfonamide], the inhibition at 10 µM in test [1] stood at 99.1%; in test [2], 98.8%.
Consider `COc1cc(C)c(S(=O)(=O)N(CCOCC(=O)N2CCC(O)(c3cccs3)CC2)CC(C)C)c(C)c1C` [Example 269, N-(2-(2-(4-hydroxy-4-(thiophen-2-yl)piperidin-1-yl)-2-oxoethoxy)ethyl)-N-isobutyl-4-methoxy-2,3,6-trimethylphenylsulfonamide], for which the inhibition at 10 µM in test [1] was 98.4%; in test [2], 99.1%.
The matching figures for `O=C(COCC1CCCCN1S(=O)(=O)c1c(Cl)cccc1Cl)N1CCC(O)(c2cccs2)CC1` (stereo not drawn) [Example 270, 2-((1-(2,6-dichlorophenylsulfonyl)piperidin-2-yl)methoxy)-1-(4-hydroxy-4-(thiophen-2-yl)piperidin-1-yl)ethanone]: 93.9% and 99.7%.
For `O=C(COCC1CCCCN1S(=O)(=O)c1cc(Cl)sc1Cl)N1CCC(O)(c2ccccc2)CC1` (stereo not drawn) [Example 271, 2-((1-(2,5-dichlorothiophen-3-ylsulfonyl)piperidin-2-yl)methoxy)-1-(4-hydroxy-4-phenylpiperidin-1-yl)ethanone], the inhibition at 10 µM in test [1] amounted to 41.9%; in test [2], 78.3%.
For the compound `O=C(COCC1CCN(S(=O)(=O)c2c(Cl)cc(Cl)cc2Cl)C1)N1CCC(O)(c2ccc(Cl)cc2)CC1` (stereo not drawn) [Example 272, 1-(4-(4-chlorophenyl)-4-hydroxypiperidin-1-yl)-2-((1-(2,4,6-trichlorophenylsulfonyl)pyrrolidin-3-yl)methoxy)ethanone], the values for the inhibition at 10 µM in test [1] and in test [2] were 54.1% and 24.1%, respectively.
The matching figures for `O=C(COCC1CCCCN1S(=O)(=O)c1csc2ccccc12)N1CCC(O)(c2cccnc2)CC1` (stereo not drawn) [Example 273, 2-((1-(benzo[b]thiophen-3-ylsulfonyl)piperidin-2-yl)methoxy)-1-(4-hydroxy-4-(pyridin-3-yl)piperidin-1-yl)ethanone]: 103% and 101%.
On to `O=C(COCC1CCCCN1S(=O)(=O)c1csc2ccccc12)N1CCC(O)(Cc2ccccc2)CC1` (stereo not drawn) [Example 274, 2-((1-(benzo[b]thiophen-3-ylsulfonyl)piperidin-2-yl)methoxy)-1-(4-benzyl-4-hydroxypiperidin-1-yl)ethanone], for which the inhibition at 10 µM is 96.4% in test [1] and 76% in test [2].
For the compound `COc1cc(C)c(S(=O)(=O)N(C)CCOCCC(=O)N2CCC(O)(c3ccc(Cl)cc3)CC2)c(C)c1` [Example 275, N-(2-(3-(4-(4-chlorophenyl)-4-hydroxypiperidin-1-yl)-3-oxopropoxy)ethyl)-4-methoxy-N,2,6-trimethylphenylsulfonamide], the inhibition at 10 µM was determined as 100% in test [1] and 92.4% in test [2].
In the same order, the values of `COc1cc(C)c(S(=O)(=O)N(C)CCOCCC(=O)N2CCC(O)(c3ccccc3)CC2)c(C)c1` [Example 276, N-(2-(3-(4-hydroxy-4-phenylpiperidin-1-yl)-3-oxopropoxy)ethyl)-4-methoxy-N,2,6-trimethylphenylsulfonamide] are 70.7% and 88.3%.
As to `COc1cc(C)c(S(=O)(=O)N(C)CCOCCC(=O)N2CCC(O)(Cc3ccccc3)CC2)c(C)c1` [Example 277, N-(2-(3-(4-benzyl-4-hydroxypiperidin-1-yl)-3-oxopropoxy)ethyl)-4-methoxy-N,2,6-trimethylphenylsulfonamide], the results for the inhibition at 10 µM in test [1] and in test [2] were 86.8% and 88.2%, respectively.
Regarding `COc1cc(C)c(S(=O)(=O)N(C)CCOCCC(=O)N2CCC(O)(c3ccc(Cl)c(C(F)(F)F)c3)CC2)c(C)c1` [Example 278, N-(2-(3-(4-(4-chloro-3-(trifluoromethyl)phenyl)-4-hydroxypiperidin-1-yl)-3-oxopropoxy)ethyl)-4-methoxy-N,2,6-trimethylphenylsulfonamide], the inhibition at 10 µM was 96.4% in test [1] and 99.9% in test [2].
As to `COc1cc(C)c(S(=O)(=O)N(C)CCOCC(=O)N2CCC(O)(Cc3cccnc3)CC2)c(C)c1` [Example 279, N-(2-(2-(4-hydroxy-4-(pyridin-3-ylmethyl)piperidin-1-yl)-2-oxoethoxy)ethyl)-4-methoxy-N,2,6-trimethylphenylsulfonamide hydrochloride], the inhibition at 10 µM turned out to be 103% in test [1] and 105% in test [2].
Consider `COc1cc(C)c(S(=O)(=O)N(C)CCOCC(=O)N2CCC(O)(Cc3ccncc3)CC2)c(C)c1` [Example 280, N-(2-(2-(4-hydroxy-4-(pyridin-4-ylmethyl)piperidin-1-yl)-2-oxoethoxy)ethyl)-4-methoxy-N,2,6-trimethylphenylsulfonamide], for which the inhibition at 10 µM in test [1] and in test [2] was 100% in each case.

The values are drawn from patent US8580965B2, “Substituted sulfonamide compounds” (Gruenenthal GmbH, priority 2006, dated 2013).
